Values joined by “and” are separate entries in the source; they are usually repeats but may differ in a detail not shown here. Equal values may be shown once. Read-outs that look alike come from different tables or passages of the source.
How the values were obtained:
[1] = Biliary appearance of intestinally administered genistein in rats; assay type: in vivo; conditions: rat, bile, intestinal administration with NaTC, over a 4 hr period, read-out: fraction of administered genistein appearing in bile
Procedure: (§1) The low aqueous solubility of genistein (<50 μg per ml) should also be considered. This might result in a maximum total absorption independent of dose. […] The present inventors have used this delivery method for studies performed in rats. […] NaTC is a naturally occurring bile salt and may have a role in the absorption of genistein released from food.

Aqueous solubility = assay type: physicochemical
Procedure: as §1

[2] = test system: avian osteoclast membrane HCl transport; test: Osteoclast membrane vesicle acid transport (acridine orange fluorescence quenching); assay type: biochemical, Gallus domesticus; conditions: for effect of valinomycin on inhibited vesicle acid transport: 120 mM KCl, 5 μM herbimycin, 20 μM genistein; for IC50: osteoclast membrane vesicles, read-out: half maximal inhibition of osteoclast acid transport / acid secretion; for reversal of inhibition by by-passing chloride conductivity with valinomycin: valinomycin 2 μM, potassium 120 mM; for activity on acid transport: 25 μM
avian osteoclasts [3] = test: Bone resorption assay with [3H]-proline labeled bone and isolated osteoclasts; assay type: cell-based, Gallus domesticus; conditions: for IC (essentially complete): 72 h, read-out: concentration giving essentially complete inhibition of bone resorption; for bone resorption: negative to concentration: quadruplicate assays
Procedure: Arian osteoclasts were isolated from medullary bone of calcium-starved white leghorn laying hens, Gallus domesticus, essentially as described by Blair et al. (1986). […] 90-98% of cell mass of sedimenting material consists of osteoclasts or essentially inert red cells (Zambonin-Zallone et al., 1982; Blair et al., 1986). Although rich in osteoclasts, these preparations contain significant numbers of all other components of bone, including osteoblasts and marrow cells.
Cells were plated on glass cover slips in 3 cm petri plates for fluorescence studies, or 15 cm petri plates for Western Blots, or 24 well plates (2 cm^2 /well) for resorption and binding studies. For resorption and binding studies, cells were plated at 5×10^3 /well. Cells were maintained in α-MEM containing 5% fetal calf serum, 5% chicken serum, 100 μg/ml streptomycin and 100 units/ml penicillin at 37° C. in humidified air with 5% CO2.
Where bone was used, this was devitalized fragmented rat bone (Blair et al., 1986) sieved to sizes indicated, usually 25-50 μm. For studies of osteoclasts attached to bone or tissue culture plates, 100 μg unlabeled bone per 2 cm^2 well was used, or 5 mg per 10 cm plate.
Bone resorption was measured using [^3 H]-proline labeled bone (Blair et al., 1986).

osteoclasts [4] = test: Bone binding (adherence of labeled bone fragments to cultured osteoclasts); assay type: cell-based, Gallus domesticus
Procedure: Bone binding was determined by adherence of bone fragments to cultured cells (Carano et al., 1990). Briefly, this entailed adding labeled bone fragments to 3 day osteoclast cultures, incubating 4 h at 37° C. in a α-MEM with 5% fetal calf serum and 5% chicken serum, washing with PBS […], solubilizing the label overnight in 6N HCl, and scintillation counting.

[5] = Southeast Asians, 70 mg per day; cited from earlier work
osteoclasts [6] = test: in vitro
Procedure: (§2) Since advantageous effects are seen at 1 μM, with half maximal effects at 2-3 μM, toxicity at 30 μM indicates a broad therapeutic margin. […] It should also be noted that doses would not be designed to achieve 100%, or even 50%, inhibition as osteoclasts are vital cells. Thus, 10-20% inhibition would likely result in a clear benefit to the patient without significant side effects, particularly as over-inhibtion would be compensated for by production of PTH.

in vitro = conditions: osteoclasts
Procedure: as §2

avian osteoclasts [7] = test: Bone resorption assay with [3H]-proline labeled bone and isolated osteoclasts; assay type: cell-based, Gallus domesticus; conditions: Gallus gallus, Osteoclast, read-out: half maximal effect on bone resorption, 100 μg 3H-proline labeled bone, 10^4 osteoclasts

O=c1c(-c2ccc(O)cc2)coc2cc(O)cc(O)c12 [genistein, 5,7,4'-trihydroxyisoflavone]
dose excreted at 4 h [1]: 40 to 50% | aqueous solubility when mixed with bile salt (Aqueous solubility; mixed with sodium taurocholate (NaTC)): substantially enhanced | solubility (Aqueous solubility; water): < 50 µg/mL | level effective at inhibiting osteoclast acid secretion [2]: less than 1 μM and < 0.27 μg/ml | effect of valinomycin on inhibited vesicle acid transport [2]: valinomycin insensitive | inhibition of osteoclast cell membrane acid transport (FIG. 2) ([2]; doses comparable to those inhibiting bone resorption): inhibited | IC50 [2]: ~3000 nM | reversal of inhibition by by-passing chloride conductivity with valinomycin [2]: not reversed | inhibition of bone resorption / degradation (FIG. 1) (avian osteoclasts [3]): significantly inhibited | IC (essentially complete) (avian osteoclasts [3]; Gallus gallus, Osteoclast, at 3 days): 20 µM | inhibition of bone resorption / degradation (FIG. 1) (avian osteoclasts [3]; listed as Genistein): significantly inhibits | effect on osteoclast binding to bone (osteoclasts [4]): alter the ability of osteoclasts to bind to bone | ill effects of dietary intake [5]: without obvious ill effects | time in which cells die (osteoclasts [6]; 30 μM genistein): 2 to 3 days | MCC (in vitro; chicken): 30 µM | selectivity ratio (in vitro): ~30

O=c1c(-c2ccc(O)cc2)coc2cc(O)ccc12 [daidzein, 4',7-dihydroxyisoflavone]
activity on acid transport [2]: inactive | inhibition of osteoclast acid transport ([2]; 30 μM): < 20% | effect on bone resorption (avian osteoclasts [3]; 10 μM): no effect | inhibition at 30 µM (avian osteoclasts [3]; Gallus gallus, Osteoclast, 30 μM): ~10% | activity in the osteoclast assay systems (avian osteoclasts [3]; osteoclast assay systems disclosed): negligible activity | bone resorption: negative to concentration (avian osteoclasts [3]): > 20 µM

CO[C@H]1[C@@H](OC)C[C@H](C)[C@@H](OC)C2=CC(=O)C=C(NC(=O)/C(C)=C/C=C\[C@H](OC)[C@@H](OC(N)=O)/C(C)=C/[C@@H]1C)C2=O [Herbimycin A]
effective dose on osteoclast acid secretion relative to genistein, fold lower [2]: about 10 fold | effect of valinomycin on inhibited vesicle acid transport [2]: restored acid transport activity | IC50 [2]: ~2000 nM | reversal of inhibition by by-passing chloride conductivity with valinomycin [2]: partially reversed | IC (essentially complete) (avian osteoclasts [3]; Gallus gallus, Osteoclast): 1 µM | IC50 (avian osteoclasts [7]): 300 to 500 nM | toxicity relative to genistein (osteoclasts [6]): about ten times more toxic | toxicity threshold relative to genistein, fold lower (osteoclasts [6]; chicken): about 10 fold

N#CC(C#N)=Cc1cc(O)c(O)c(O)c1 [Tyrphostin A25]
activity on acid transport [2]: inactive

N#CC(=Cc1ccc(O)c(O)c1)C(N)=S [Tyrphostin A47]
IC50 [2]: 12000 nM | bone resorption: negative to concentration (avian osteoclasts [3]): > 20 µM

Reference: patent US5506211A, “Genistein for use in inhibiting osteroclasts” (The UAB Research Foundation, priority 1994, dated 1996)
